Tested on: HCC patient-derived spheroids (primary HCC tumorspheres)
Experiment: HCC patient-derived spheroid viability (CellTiterGlo 3D, ATP quantification)
Assay type: cell-based, human
Conditions: HCC spheroids from 15 different HCC patients; 6 days; H3L3 10 μg/mL, sorafenib 10 μM, nivolumab 10 μg/mL; vs control mAb; FIG. 1C
Text: Fragments of tumor tissue (5×5 mm to 8×8 mm size) were excised from tumor mass of HCC patients (n=15 different donors, Table 2) and then processed with enzymatic and mechanical dissociation to generate clusters of tumor cells similarly as described recently (Crouchet E, et al., Nat Commun 2021; 12:5525; Jühling F, et al., Gut 2021; 70:157-69). Aggregates of cells were assembled into spheroids in 96-well Black/Clear Bottom Low Flange Ultra-Low Attachment Microplates (Corning) and cultured in MammoCult basal medium (STEMCELL Technologies), supplemented with human proliferation supplement (3.4%), hydrocortisone (0.056%), heparin (0.011%) and 50% patients' own serum.
Tumorspheres were treated for 6 days with 10 μg/mL isotype control mAb, with 10 μg/mL anti-Claudin-1 mAb “H3L3” (Table 1), with sorafenib (10 μM, Selleckchem) or with Nivolumab (10 μg/mL, Selleckchem) with at least duplicates per condition. Tumorsphere viability was assessed at day 6 using CellTiterGlo 3D (Promega) according to the manufacturer's instructions.

Compound: nivolumab [reference compound]
- response rate (defined as a mean decrease in cell viability of >15%): 15%

Compound: CNC(=O)c1cc(Oc2ccc(NC(=O)Nc3ccc(Cl)c(C(F)(F)F)c3)cc2)ccn1 [sorafenib, 4-[4-[[4-chloro-3-(trifluoromethyl)phenyl]carbamoylamino]phenoxy]-N -methyl-pyridine-2-carboxamide, reference compound]
- response rate (defined as a mean decrease in cell viability of >15%): 33%
